How the values were obtained:
Assay in all cases: relative viability (nuclei count vs DMSO), 5 days (fraction); higher = more cells survive
[1] = compound: OCc1c[nH]c2ccccc12 [Indole-3-carbinol] + O=C(c1cc(Cc2n[nH]c(=O)c3ccccc23)ccc1F)N1CCN(C(=O)C2CC2)CC1 [Olaparib] (partner 8 µM)
In short: (§1)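 Lung cancer cell lines were pin-tool dosed in 1536-well plates on the day after seeding, with either a lone drug or a fixed anchor-drug dose plus five library-drug doses (not always all listed) in √10 steps. Nuclei were counted on 4× images after 5 days. Relative viability is the ratio of treated-well to vehicle-well nuclei counts, with each value a median of duplicate plates.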

[2] = compound: OCc1c[nH]c2ccccc12 [Indole-3-carbinol] + C[C@@H](Oc1cc(-c2cnn(C3CCNCC3)c2)cnc1N)c1c(Cl)ccc(F)c1Cl [Crizotinib] (partner 1 µM)
In short: as §1

[3] = compound: OCc1c[nH]c2ccccc12 [Indole-3-carbinol] + Nc1nc2[nH]cc(CCc3ccc(C(=O)N[C@@H](CCC(=O)O)C(=O)O)cc3)c2c(=O)[nH]1 [Pemetrexed] (partner 0.2 µM)
In short: as §1

[4] = compound: OCc1c[nH]c2ccccc12 [Indole-3-carbinol] + CC(=O)Nc1cccc(-n2c(=O)n(C3CC3)c(=O)c3c(Nc4ccc(I)cc4F)n(C)c(=O)c(C)c32)c1 [Trametinib] (partner 0.02 µM)
In short: as §1

[5] = compound: OCc1c[nH]c2ccccc12 [Indole-3-carbinol] + C[C@]1(O)C[C@@H](c2nc(-c3ccc4ccc(-c5ccccc5)nc4c3)c3c(N)nccn32)C1 [Linsitinib] (partner 1 µM)
In short: as §1

Cell Line	relative viability ([1]; first compound 0.253 µM)	relative viability ([1]; first compound 0.8 µM)	relative viability ([1]; first compound 2.53 µM)	relative viability ([1]; first compound 8 µM)	relative viability ([2]; first compound 0.253 µM)	relative viability ([2]; first compound 0.8 µM)	relative viability ([2]; first compound 2.53 µM)	relative viability ([2]; first compound 8 µM)	relative viability ([3]; first compound 0.253 µM)	relative viability ([3]; first compound 0.8 µM)	relative viability ([3]; first compound 2.53 µM)	relative viability ([3]; first compound 8 µM)	relative viability ([4]; first compound 0.253 µM)	relative viability ([4]; first compound 0.8 µM)	relative viability ([4]; first compound 2.53 µM)	relative viability ([4]; first compound 8 µM)	relative viability ([5]; first compound 0.253 µM)	relative viability ([5]; first compound 0.8 µM)	relative viability ([5]; first compound 2.53 µM)	relative viability ([5]; first compound 8 µM)
NCI-H1755	0.894	0.926	0.929	0.872	0.916	0.97	0.862	0.888	0.422	0.436	0.435	0.386	0.784	0.737	0.815	0.733	1.03	1.05	0.95	0.959
NCI-H1792	0.612	0.532	0.553	0.3	0.95	1.01	0.95	0.984	0.984	0.993	0.704	0.858	0.436	0.369	0.432	0.379	0.499	0.37	0.506	0.47
NCI-H1915	0.253	0.243	0.282	0.25	0.881	0.852	0.892	0.924	0.466	0.527	0.513	0.511	0.282	0.294	0.342	0.296	1.09	1.1	1.1	1.11
NCI-H1944	0.38	0.348	0.388	0.368	1.06	0.951	1.12	0.955	0.663	0.539	0.649	0.641	0.425	0.378	0.393	0.417	1.27	1.1	1.17	1.17
NCI-H1975	0.801	0.847	0.822	0.77	1	1.13	0.966	0.97	0.288	0.294	0.293	0.311	0.559	0.493	0.337	0.641	0.812	1.05	0.964	0.954
NCI-H1993	1.01	1.12	0.98	0.927	0.873	0.896	0.813	0.944	0.59	0.69	0.548	0.567	0.483	0.519	0.513	0.554	0.692	0.793	0.815	0.667
NCI-H2009	0.674	0.768	0.7	0.649	0.993	1.07	0.953	1	1.03	1.07	1.07	1.06	0.285	0.294	0.278	0.281	1.24	1.26	1.17	1.13
NCI-H2023	0.471	0.564	0.518	0.422	0.716	0.732	0.651	0.631	0.245	0.269	0.252	0.258	0.525	0.532	0.555	0.473	0.728	0.667	0.687	0.589

From the supplement of paper PMC10307832
